From PubChem BioAssay AID720699 (NMMLSC, 2013)

Test: incubation effect on Rab7 inhibitor curves, late-stage follow-up, mechanism study, biochemical, Rab7 wildtype, bead flow cytometry, two incubation protocols (AID 720699)
Conditions: Rab7 beads, Bodipy-FL-GTP binding

`CC1(C)Cc2c(sc(NC(=S)NC(=O)c3ccc(N=[N+]=[N-])cc3)c2C(=O)O)CO1` gave an EC50 (protocol A) of 219 nM and an EC50 (protocol B) of 172 nM.

Compound `CC1(C)Cc2c(sc(NC(=S)NC(=O)c3cccc(N=[N+]=[N-])c3)c2C(=O)O)CO1` has an EC50 (protocol A) of 1260 nM and an EC50 (protocol B) of 1220 nM.
